One series relates to MCF-7. Kind of series: MTT cytotoxicity assay on MCF-7. Type of series: cell-based. The settings on record: MCF-7 human cancer cell line, at 200 μM. (In general: Tetrazolium assays rely on reduction of a dye to a coloured formazan, in cell work by metabolically active cells.)
For series [1], the target named is α-glucosidase from Saccharomyces cerevisiae (Saccharomyces cerevisiae, UniProt P53341). Put plainly: biochemical. Type of series: biochemical. The settings on record: for IC50: substrate p-nitrophenyl glucopyranoside, 37 °C. How it is done: Next, absorbance was measured at 405 nm by spectrophotometer (Gen5, Power wave xs2, BioTek, USA), and IC50 value for each tested compound was calculated by taking advantage of the nonlinear regression curve (logit method).

In a further series the test system is HDF. Put plainly: MTT cytotoxicity assay on HDF. Type of series: cell-based. The settings on record: HDF human normal cell line, at 200 μM.
The target of another series is α-glucosidase (Saccharomyces cerevisiae, UniProt P53341). Kind of series: Enzyme kinetic study (Lineweaver–Burk and secondary plot). It is filed as biochemical. How it is done:
Furthermore, the plot of the Km versus different concentrations of compound 8p gave an estimate of Ki as the inhibition constant (Fig. 2b). Ki value for the latter compound was 60 µM.
A Lineweaver–Burk plot was generated to identify the type of inhibition and the Michaelis–Menten constant (Km) value was determined from plot between reciprocal of the substrate concentration (1/[S]) and reciprocal of enzyme rate (1/V) over various inhibitor concentrations. Experimental inhibitor constant (Ki) value was constructed by secondary plots of the inhibitor concentration [I] versus Km.

Like-named read-outs stand apart in the source and are kept apart here. A value given as a limit tells only on which side of the number the result lay.

Sequence of α-glucosidase (P53341 whole entry): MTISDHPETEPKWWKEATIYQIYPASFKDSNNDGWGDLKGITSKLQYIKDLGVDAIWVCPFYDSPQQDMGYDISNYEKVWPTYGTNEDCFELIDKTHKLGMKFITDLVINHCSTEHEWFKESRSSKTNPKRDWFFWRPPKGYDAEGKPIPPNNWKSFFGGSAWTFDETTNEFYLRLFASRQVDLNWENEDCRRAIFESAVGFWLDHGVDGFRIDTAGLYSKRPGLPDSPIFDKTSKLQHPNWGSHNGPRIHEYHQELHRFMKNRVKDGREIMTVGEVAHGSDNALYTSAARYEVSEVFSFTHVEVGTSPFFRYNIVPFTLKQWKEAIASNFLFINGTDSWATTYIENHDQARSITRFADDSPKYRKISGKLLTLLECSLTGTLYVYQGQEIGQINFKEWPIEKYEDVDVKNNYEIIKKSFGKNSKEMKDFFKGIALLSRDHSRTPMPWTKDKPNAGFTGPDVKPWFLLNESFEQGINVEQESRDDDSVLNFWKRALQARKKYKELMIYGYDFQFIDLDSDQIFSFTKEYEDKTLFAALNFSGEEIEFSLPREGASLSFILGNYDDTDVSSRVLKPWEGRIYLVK
Sequence of α-glucosidase from Saccharomyces cerevisiae (P53341 whole entry): as above

The melting point is the temperature, or range, at which the solid turns liquid. In general, IC50 refers to the concentration needed to halve the response being measured. Regarding `COc1ccc(-c2nc3cc(C(=O)N/N=C/c4ccccc4)ccc3[nH]2)cc1` [Compound 8a, (E)-N'-benzylidene-2-(4-methoxyphenyl)-1H-benzo[d]imidazole-5-carbohydrazide], the melting point is greater than 250 °C. The “cytotoxicity (MTT)” value in the series with MCF-7 was “non-cytotoxic”. For the same compound, the midpoint of inhibition in series [1] (IC50, yeast α-glucosidase), the IC50, lay at 70.6 ± 6.8 µM. In addition, in the series with HDF, the “cytotoxicity (MTT)” value was “non-cytotoxic”.

`COc1ccc(-c2nc3cc(C(=O)N/N=C/c4ccc(C)cc4)ccc3[nH]2)cc1` [Compound 8b, (E)-2-(4-methoxyphenyl)-N'-(4-methylbenzylidene)-1H-benzo[d]imidazole-5-carbohydrazide] returned a melting point greater than 250 °C. For the same compound, the half-inhibitory concentration (IC50) in series [1] (IC50, yeast α-glucosidase) turned out to be 102 ± 5.6 µM.

As to `COc1ccc(/C=N/NC(=O)c2ccc3[nH]c(-c4ccc(OC)cc4)nc3c2)cc1` [Compound 8c, (E)-N'-(4-methoxybenzylidene)-2-(4-methoxyphenyl)-1H-benzo[d]imidazole-5-carbohydrazide], the melting point is greater than 250 °C. For the same compound, the IC50 in series [1] (IC50, yeast α-glucosidase) was found to be 110 ± 5.5 µM.

Regarding `COc1ccc(-c2nc3cc(C(=O)N/N=C/c4cc(OC)c(OC)c(OC)c4)ccc3[nH]2)cc1` [Compound 8d, (E)-2-(4-methoxyphenyl)-N'-(3,4,5-trimethoxybenzylidene)-1H-benzo[d]imidazole-5-carbohydrazide], in series [1] (yeast α-glucosidase), the “inhibitory activity against α-glucosidase (in words)” value was “inactive”.

In turn, `COc1ccc(-c2nc3cc(C(=O)N/N=C/c4cccc(Oc5ccccc5)c4)ccc3[nH]2)cc1` [Compound 8e, (E)-2-(4-methoxyphenyl)-N'-(3-phenoxybenzylidene)-1H-benzo[d]imidazole-5-carbohydrazide] returned a melting point greater than 250 °C. Moreover, in series [1] (IC50, yeast α-glucosidase), inhibition was half-maximal at 127 ± 6.5 µM (IC50).

For the compound `COc1ccc(-c2nc3cc(C(=O)N/N=C/c4cccc(O)c4)ccc3[nH]2)cc1` [Compound 8f, (E)-N'-(3-hydroxybenzylidene)-2-(4-methoxyphenyl)-1H-benzo[d]imidazole-5-carbohydrazide], inhibition in series [1] (IC50, yeast α-glucosidase) was half-maximal at 181 ± 8.5 µM (IC50).

Compound `COc1ccc(-c2nc3cc(C(=O)N/N=C/c4ccc(O)c(OC)c4)ccc3[nH]2)cc1` [Compound 8g, (E)-N'-(4-hydroxy-3-methoxybenzylidene)-2-(4-methoxyphenyl)-1H-benzo[d]imidazole-5-carbohydrazide] came in with a melting point greater than 250 °C. In addition, the IC50 in series [1] (yeast α-glucosidase, read-out: IC50) was found to be 287 ± 7.4 µM.

As to `COc1ccc(-c2nc3cc(C(=O)N/N=C/c4ccccc4F)ccc3[nH]2)cc1` [Compound 8h, (E)-N'-(2-fluorobenzylidene)-2-(4-methoxyphenyl)-1H-benzo[d]imidazole-5-carbohydrazide], the “cytotoxicity (MTT)” value in the series on MCF-7 and in the series with HDF was “non-cytotoxic” throughout. For the same compound, the IC50 in series [1] (IC50, yeast α-glucosidase) stood at 69 ± 4 µM.

`COc1ccc(-c2nc3cc(C(=O)N/N=C/c4cccc(F)c4)ccc3[nH]2)cc1` [Compound 8i, (E)-N'-(3-fluorobenzylidene)-2-(4-methoxyphenyl)-1H-benzo[d]imidazole-5-carbohydrazide] had a melting point greater than 250 °C. The compound also registered an IC50 in series [1] (IC50, yeast α-glucosidase) of 88.1 ± 6 µM.

`COc1ccc(-c2nc3cc(C(=O)N/N=C/c4ccc(F)cc4)ccc3[nH]2)cc1` [Compound 8j, (E)-N'-(4-fluorobenzylidene)-2-(4-methoxyphenyl)-1H-benzo[d]imidazole-5-carbohydrazide]: the melting point is greater than 250 °C. The same compound yielded an IC50 in series [1] (IC50, yeast α-glucosidase) of 84.1 ± 4.5 µM.

As for `COc1ccc(-c2nc3cc(C(=O)N/N=C/c4ccccc4Cl)ccc3[nH]2)cc1` [Compound 8k, (E)-N'-(2-chlorobenzylidene)-2-(4-methoxyphenyl)-1H-benzo[d]imidazole-5-carbohydrazide], the melting point was greater than 250 °C. In addition, in series [1] (IC50, yeast α-glucosidase), 90 ± 7.5 µM corresponded to half-maximal inhibition (IC50).

`COc1ccc(-c2nc3cc(C(=O)N/N=C/c4ccc(Cl)cc4)ccc3[nH]2)cc1` [Compound 8l, (E)-N'-(4-chlorobenzylidene)-2-(4-methoxyphenyl)-1H-benzo[d]imidazole-5-carbohydrazide] yielded a melting point greater than 250 °C. For the same compound, the IC50 in series [1] (IC50, yeast α-glucosidase) was found to be 103 ± 5.5 µM.

On to `COc1ccc(-c2nc3cc(C(=O)N/N=C/c4cccc(Br)c4)ccc3[nH]2)cc1` [Compound 8m, (E)-N'-(3-bromobenzylidene)-2-(4-methoxyphenyl)-1H-benzo[d]imidazole-5-carbohydrazide], for which the melting point was greater than 250 °C. The compound also displayed an IC50 in series [1] (IC50, yeast α-glucosidase) of 97 ± 4.4 µM.

Regarding `COc1ccc(-c2nc3cc(C(=O)N/N=C/c4ccc([N+](=O)[O-])cc4)ccc3[nH]2)cc1` [Compound 8n, (E)-2-(4-methoxyphenyl)-N'-(4-nitrobenzylidene)-1H-benzo[d]imidazole-5-carbohydrazide], the melting point was greater than 250 °C. In series [1] (IC50, yeast α-glucosidase), this compound had an IC50 of 112 ± 5.7 µM.

Take `COc1ccc(-c2nc3cc(C(=O)N/N=C/c4cc5c(cc4[N+](=O)[O-])OCO5)ccc3[nH]2)cc1` [Compound 8o, (E)-2-(4-methoxyphenyl)-N'-((6-nitrobenzo[d][1,3]dioxol-5-yl)methylene)-1H-benzo[d]imidazole-5-carbohydrazide]: the melting point was greater than 250 °C. The compound further yielded an IC50 in series [1] (IC50, yeast α-glucosidase) of 123 ± 6.1 µM.

One may read the Ki as a measure of affinity in units of concentration, obtained from inhibition or displacement. In the case of `COc1ccc(-c2nc3cc(C(=O)N/N=C/c4cccs4)ccc3[nH]2)cc1` [Compound 8p, (E)-2-(4-methoxyphenyl)-N'-(thiophen-2-ylmethylene)-1H-benzo[d]imidazole-5-carbohydrazide], the melting point was greater than 250 °C. For the same compound, the “cytotoxicity (MTT)” value with MCF-7 is “non-cytotoxic”. This compound also came in with an IC50 in series [1] (IC50, yeast α-glucosidase) of 60.1 ± 3.6 µM. The type of inhibition result at α-glucosidase (Lineweaver–Burk plot) was “competitive inhibitor”. In addition, the affinity on α-glucosidase (secondary plot of Km versus inhibitor concentration) corresponds to a Ki of 60 µM. The “cytotoxicity (MTT)” value with HDF is “non-cytotoxic”.

(Values after article PMC9437094, “Docking study, molecular dynamic, synthesis, anti-α-glucosidase assessment, and ADMET prediction of new benzimidazole-Schiff base derivatives” (Scientific Reports, 2022).)
